16 molecules from patent publication US11834453B2, “Substituted pyrimido[5,4-d]pyrimidines as HER2 inhibitors” (Array BioPharma Inc., priority 2020, dated 2023) can be followed below.

In one data set the target is ErbB2 WT (Homo sapiens (Human), UniProt P04626). In words: ErbB enzyme assay (CisBio HTRF KinEASE-TK), Assay 2. The data set is classed as biochemical. The method in brief: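 ErbB2 phosphorylates 250 nM biotin-TK substrate at 1 mM ATP in 25 mM HEPES pH 7.4, 10 mM MgCl2, 0.01% Triton X-100 and 2% DMSO, for 30 min at 22 °C. Product is detected by HTRF with Sa-XL665 and TK-Ab-Cryptate. Percent of control is set by DMSO-only wells and pre-quenched wells.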
For orientation: Time-resolved FRET reads energy transfer from a long-lived donor to a nearby acceptor.

Data set [1] has as its target ErbB2 insYVMA (HER2-YVMA, SEQ ID NO: 2) (Homo sapiens, UniProt P04626, INS775YVMA/P1170A). The experiment in a line: biochemical. Conditions: ErbB2 insYVMA enzyme assay; read-out: Assay 1 IC50.
Another data set concerns the target EGFR wild type (EGFR WT) (Homo sapiens (Human), UniProt P00533). The experiment in a line: Cellular phosphorylation assay, EGF-stimulated EGFR phosphorylation in engineered NIH 3T3 cells, Phospho-EGFR DuoSet IC ELISA, Assay 5. It counts as cell-based. The method in brief: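 NIH 3T3 cells expressing EGFR WT (20,000/well, attached overnight) were exposed to serially diluted compound for 1 h at 37 °C, then stimulated with 100 ng/ml rEGF for 10 min. Phospho-EGFR in lysates measured by sandwich ELISA optical density; IC50 from curves.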
(In an ELISA, binding on a coated surface is turned into a signal by an enzyme label.)

In a further data set the target is BCRP (Homo sapiens (Human), UniProt Q9UNQ0). The experiment in a line: BCRP transfected MDCKII canine Mdr1 knockout permeability/efflux, Assay 9. Conditions: efflux ratio Papp(B-A)/Papp(A-B), BCRP transfected MDCKII canine Mdr1 knockout; for efflux ratio at 2 h, 1 μM: dog, Assay 9 Pe Ratio.
In the next data set the target is MDR1 (P-gp) (Homo sapiens (Human), UniProt P08183). The experiment in a line: MDR1 transfected LLC-PK1 permeability/efflux, Assay 6. Particulars: efflux ratio Papp(B-A)/Papp(A-B), MDR1 transfected LLC-PK1; for efflux ratio at 2 h, 1 μM: pig, LLC-PK1, Assay 6 Pe Ratio.
For the next data set, the target named is EGFR (Homo sapiens (Human), UniProt P00533). The experiment in a line: ErbB enzyme assay (CisBio HTRF KinEASE-TK), Assay 3. It counts as biochemical. The method in brief: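 Kinase + 250 nM biotin TK-substrate, 1 mM ATP, cpd (3-fold dil.), HEPES pH 7.4/10 mM MgCl2/0.01% Triton/2% DMSO; 30 min 22 °C. Quench w/ Sa-XL665 + TK-Ab-Cryptate, 1 h, HTRF. IC50 = 50 POC on 4PL fit.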

In data set [2] the target is ErbB2 with Exon 20 YVMA insertion (HER2-YVMA) (Homo sapiens (Human), UniProt P04626, INS775YVMA). In words: Cellular phosphorylation assay, constitutive ErbB2 phosphorylation (Y1196) in engineered NIH 3T3 cells, Assay 4. The data set is classed as cell-based. The method in brief: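 Engineered NIH 3T3 cells expressing HER2-YVMA treated with compounds 1 h at 37 °C, then formaldehyde-fixed and methanol-permeabilized. pErbB2 Y1196 detected by in-cell infrared immunofluorescence, normalized to GAPDH. IC50 from the normalized curves.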
Sequence of ErbB2 with Exon 20 YVMA insertion (HER2-YVMA) (P04626 other isoform, or with tags, fused parts or gaps ins YVMA behind 775): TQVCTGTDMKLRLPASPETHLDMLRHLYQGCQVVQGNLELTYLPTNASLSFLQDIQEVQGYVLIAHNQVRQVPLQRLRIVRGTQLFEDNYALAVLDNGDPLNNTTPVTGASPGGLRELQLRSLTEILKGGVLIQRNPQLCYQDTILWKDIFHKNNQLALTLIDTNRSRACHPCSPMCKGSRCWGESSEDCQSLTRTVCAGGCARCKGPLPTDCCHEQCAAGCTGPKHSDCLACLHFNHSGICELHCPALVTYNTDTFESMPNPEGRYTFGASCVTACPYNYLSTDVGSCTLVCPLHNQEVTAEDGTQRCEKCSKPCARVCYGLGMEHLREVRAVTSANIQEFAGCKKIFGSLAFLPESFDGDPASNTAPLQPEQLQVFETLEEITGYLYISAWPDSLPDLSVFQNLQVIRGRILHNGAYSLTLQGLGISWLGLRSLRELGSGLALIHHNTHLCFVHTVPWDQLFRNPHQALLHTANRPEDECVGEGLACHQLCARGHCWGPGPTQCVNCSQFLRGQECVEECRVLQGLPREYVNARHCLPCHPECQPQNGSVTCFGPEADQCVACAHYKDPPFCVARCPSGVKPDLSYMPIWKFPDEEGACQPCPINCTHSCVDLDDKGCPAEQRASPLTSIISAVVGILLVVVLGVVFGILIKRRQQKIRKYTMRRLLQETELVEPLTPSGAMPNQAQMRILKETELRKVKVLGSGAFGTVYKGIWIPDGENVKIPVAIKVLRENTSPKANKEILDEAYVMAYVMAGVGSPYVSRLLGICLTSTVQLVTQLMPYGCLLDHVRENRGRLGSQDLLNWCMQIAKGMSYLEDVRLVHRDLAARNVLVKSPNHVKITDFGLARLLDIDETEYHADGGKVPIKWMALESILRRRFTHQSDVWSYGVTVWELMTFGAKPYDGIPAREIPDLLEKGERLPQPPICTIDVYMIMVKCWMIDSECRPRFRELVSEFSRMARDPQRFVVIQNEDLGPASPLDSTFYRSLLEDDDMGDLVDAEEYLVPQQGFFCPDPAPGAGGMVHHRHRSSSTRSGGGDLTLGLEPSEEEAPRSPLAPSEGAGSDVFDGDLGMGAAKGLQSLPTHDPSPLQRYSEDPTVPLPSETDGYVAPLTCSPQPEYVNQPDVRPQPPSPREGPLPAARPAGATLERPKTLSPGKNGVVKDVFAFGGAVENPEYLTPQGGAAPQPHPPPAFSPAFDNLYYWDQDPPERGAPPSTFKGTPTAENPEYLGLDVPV

Sequence of BCRP (Q9UNQ0 whole entry): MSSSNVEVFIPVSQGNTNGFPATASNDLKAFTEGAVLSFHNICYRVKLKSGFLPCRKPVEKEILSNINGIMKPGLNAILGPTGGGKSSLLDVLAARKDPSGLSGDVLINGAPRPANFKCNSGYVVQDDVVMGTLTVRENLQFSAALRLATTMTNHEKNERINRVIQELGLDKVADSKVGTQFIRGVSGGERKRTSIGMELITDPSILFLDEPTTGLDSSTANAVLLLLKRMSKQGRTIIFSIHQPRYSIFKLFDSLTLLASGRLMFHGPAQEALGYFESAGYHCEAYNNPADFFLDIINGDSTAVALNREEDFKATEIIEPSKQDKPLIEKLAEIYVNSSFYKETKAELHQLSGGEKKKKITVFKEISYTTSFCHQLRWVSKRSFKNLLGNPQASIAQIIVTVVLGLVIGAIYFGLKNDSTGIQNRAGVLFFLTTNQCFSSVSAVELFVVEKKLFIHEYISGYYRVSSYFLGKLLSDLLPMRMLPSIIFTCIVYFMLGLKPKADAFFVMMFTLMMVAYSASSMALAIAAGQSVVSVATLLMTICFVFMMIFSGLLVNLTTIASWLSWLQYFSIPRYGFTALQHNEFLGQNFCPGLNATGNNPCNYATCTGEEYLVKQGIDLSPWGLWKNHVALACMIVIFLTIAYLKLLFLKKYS
Sequence of MDR1 (P-gp) (P08183 whole entry): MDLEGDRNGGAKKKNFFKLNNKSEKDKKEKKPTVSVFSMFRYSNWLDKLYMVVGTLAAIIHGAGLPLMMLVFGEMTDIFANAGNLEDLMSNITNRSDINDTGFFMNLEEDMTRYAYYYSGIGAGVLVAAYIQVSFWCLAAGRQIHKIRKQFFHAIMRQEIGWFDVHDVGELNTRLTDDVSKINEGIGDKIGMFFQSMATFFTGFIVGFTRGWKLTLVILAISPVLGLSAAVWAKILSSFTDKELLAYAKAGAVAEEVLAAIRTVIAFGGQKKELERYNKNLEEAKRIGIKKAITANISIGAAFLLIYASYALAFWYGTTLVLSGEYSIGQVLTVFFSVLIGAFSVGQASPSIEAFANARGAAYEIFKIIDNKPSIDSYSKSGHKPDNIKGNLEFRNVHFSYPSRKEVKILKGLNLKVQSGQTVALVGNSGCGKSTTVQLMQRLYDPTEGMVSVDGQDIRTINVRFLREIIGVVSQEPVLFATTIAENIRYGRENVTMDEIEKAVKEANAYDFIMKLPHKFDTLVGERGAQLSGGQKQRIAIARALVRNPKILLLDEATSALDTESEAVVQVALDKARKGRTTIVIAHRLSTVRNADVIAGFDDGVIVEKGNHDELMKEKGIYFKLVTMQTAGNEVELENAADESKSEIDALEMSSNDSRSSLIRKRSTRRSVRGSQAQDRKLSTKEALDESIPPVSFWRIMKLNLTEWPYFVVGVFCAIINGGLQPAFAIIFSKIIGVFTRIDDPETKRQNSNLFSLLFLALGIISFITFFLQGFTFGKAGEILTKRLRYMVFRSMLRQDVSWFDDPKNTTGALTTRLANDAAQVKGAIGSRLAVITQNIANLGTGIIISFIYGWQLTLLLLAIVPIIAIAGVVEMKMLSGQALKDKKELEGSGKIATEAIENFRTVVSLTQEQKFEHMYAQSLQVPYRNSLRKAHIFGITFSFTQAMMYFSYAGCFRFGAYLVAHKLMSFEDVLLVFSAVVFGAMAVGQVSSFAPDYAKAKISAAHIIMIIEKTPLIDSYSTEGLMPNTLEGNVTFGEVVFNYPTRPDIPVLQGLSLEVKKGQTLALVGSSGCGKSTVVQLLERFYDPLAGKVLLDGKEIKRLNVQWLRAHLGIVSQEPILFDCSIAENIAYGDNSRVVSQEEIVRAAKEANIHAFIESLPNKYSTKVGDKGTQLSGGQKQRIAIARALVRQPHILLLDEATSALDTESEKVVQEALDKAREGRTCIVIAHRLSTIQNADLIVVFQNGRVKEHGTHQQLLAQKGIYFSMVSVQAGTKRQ
Sequence of ErbB2 WT (P04626 23-1255): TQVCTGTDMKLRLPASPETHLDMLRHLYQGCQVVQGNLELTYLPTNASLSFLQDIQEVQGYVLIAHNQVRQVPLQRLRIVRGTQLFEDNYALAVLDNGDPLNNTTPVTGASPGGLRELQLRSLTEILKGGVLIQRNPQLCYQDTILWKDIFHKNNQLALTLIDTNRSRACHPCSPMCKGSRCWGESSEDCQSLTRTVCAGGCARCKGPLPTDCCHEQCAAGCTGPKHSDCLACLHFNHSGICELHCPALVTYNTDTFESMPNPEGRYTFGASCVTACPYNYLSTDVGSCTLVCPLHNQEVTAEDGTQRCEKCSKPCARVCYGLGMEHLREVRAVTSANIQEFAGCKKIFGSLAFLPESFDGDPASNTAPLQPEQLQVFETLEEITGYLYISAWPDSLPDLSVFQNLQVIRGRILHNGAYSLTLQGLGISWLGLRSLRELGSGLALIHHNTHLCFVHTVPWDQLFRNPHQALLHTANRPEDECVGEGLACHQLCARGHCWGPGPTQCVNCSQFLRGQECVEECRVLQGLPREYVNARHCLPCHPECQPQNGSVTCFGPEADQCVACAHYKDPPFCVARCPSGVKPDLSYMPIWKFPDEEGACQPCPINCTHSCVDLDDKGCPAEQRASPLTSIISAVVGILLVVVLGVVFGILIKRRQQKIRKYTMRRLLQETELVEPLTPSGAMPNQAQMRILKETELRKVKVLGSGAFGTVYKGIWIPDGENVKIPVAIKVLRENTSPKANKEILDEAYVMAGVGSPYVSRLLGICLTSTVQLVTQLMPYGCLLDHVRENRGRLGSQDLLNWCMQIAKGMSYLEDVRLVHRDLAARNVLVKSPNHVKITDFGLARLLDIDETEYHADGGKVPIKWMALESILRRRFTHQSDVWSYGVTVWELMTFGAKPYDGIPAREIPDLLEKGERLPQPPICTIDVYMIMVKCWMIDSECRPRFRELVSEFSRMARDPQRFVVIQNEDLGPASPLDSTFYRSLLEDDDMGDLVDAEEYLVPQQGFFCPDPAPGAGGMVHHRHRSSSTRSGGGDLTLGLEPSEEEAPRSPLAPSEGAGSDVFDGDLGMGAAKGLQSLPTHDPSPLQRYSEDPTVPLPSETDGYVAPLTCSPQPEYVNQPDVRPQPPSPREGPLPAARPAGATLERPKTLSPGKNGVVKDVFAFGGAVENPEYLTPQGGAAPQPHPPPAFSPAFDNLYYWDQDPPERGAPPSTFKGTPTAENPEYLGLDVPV
Protocol for BCRP: BCRP transfected MDCKII cells (Assay 8) and BCRP transfected MDCKII canine Mdr1 knockout cells (Assay 9) were cultured and plated according to manufacturer's recommendations.
Both positive and negative controls were used to assess functionality of P-gp or BCRP efflux in the assays. Stock solutions for assay controls and the test article were prepared in DMSO for final test concentration of 1 μM. Final organic concentration in the assay was 1%. All dosing solutions contained 10 μM lucifer yellow to monitor MDCKII cell monolayer integrity.
For the apical to basolateral determination (A to B), 75 μL of the test article in transport buffer were added to the apical side of the individual transwells and 250 μL of basolateral media, without compound or lucifer yellow, were added to each well. For the basolateral to apical determination (B to A), 250 μL of test article in transport buffer were added to each well and 75 μL transport buffer, without compound or lucifer yellow, were added to each transwell. All tests were performed in triplicate, and each compound was tested for both apical to basolateral and basolateral to apical transport. The plates were incubated for 2 hours on a Lab-Line Instruments Titer Orbital Shaker (VWR, West Chester, PA) at 50 rpm and 37° C. with 5% CO2. All culture plates were removed from the incubator, 50 μL of media were removed from the apical and basolateral portion of each well, and added to 150 μL of 1 μM labetalol in 2:1 acetonitrile (ACN): H2O, v/v.
The plates were read using a Molecular Devices (Sunnyvale, CA) Gemini Fluorometer to evaluate the lucifer yellow concentrations at excitation/emission wavelengths of 425/535 nm. […] The plates were sealed, and the contents of each well analyzed by LC MS/MS. The compound concentrations were determined from the ratio of the peak areas of the compound to the internal standard (labetalol) in comparison to the dosing solution.
A MDS Sciex API 4000 (Applied Biosystems, Foster City, CA) mass spectrometer was used for detection of the analytes in the ion spray positive mode. Analyte responses were measured by multiple reaction monitoring (“MRM”) of transitions unique to each compound (the protonated precursor ion and selected product ions for each test article and m/z 329 to m/z 162 for labetalol, the internal standard.
The total run time, including re-equilibration, for a single injection was 1.2 minutes. […] The total run time, including re-equilibration, for a single injection was 0.61 minutes.
An efflux ratio is calculated from the mean apical to basolateral (A-B) Papp data and basolateral to apical (B-A) Papp data: Efflux ratio=Papp(B−A)/Papp(A−B)

With `Cc1cc(Nc2ncnc3cnc(N4CCO[C@H]5C[C@H]54)nc23)ccc1Oc1ccc2c(c1)ncn2C` (single isomer, unassigned) [Example 60a], the IC50 against ErbB2 WT was 0.0289 µM; in data set [1], 0.0184 µM; at EGFR wild type (EGFR WT) it was not below 5 µM; against EGFR, 8.28 µM; in data set [2], 0.016 µM. In addition, the efflux ratio at 2 h, 1 μM was determined as 1.2 on BCRP and 1.8 at MDR1 (P-gp).

`Cc1cc(Nc2ncnc3cnc(N4CCO[C@H]5C[C@H]54)nc23)ccc1Oc1ccc2c(c1)ncn2C` (single isomer, unassigned) [Example 60b]: the half-maximal inhibitory concentration (IC50) is 0.0187 µM against ErbB2 WT; 0.0161 µM in data set [1]; not below 5 µM against EGFR wild type (EGFR WT); 5.68 µM at EGFR; 0.0179 µM in data set [2]. Besides, the “Assay 9 Pe Ratio” value on BCRP is reported as 1.4. For the same molecule, the “Assay 6 Pe Ratio” value on MDR1 (P-gp) was determined as 1.9.

In the case of `Cc1cc(Nc2ncnc3cnc(N4CC5C6CCC(O6)C5C4)nc23)ccc1Oc1ccc2c(c1)ncn2C` (centres unmarked) [Example 16, N-(3-methyl-4-((1-methyl-1H-benzo[d]imidazol-5-yl)oxy)phenyl)-6-(octahydro-2H-4,7-epoxyisoindol-2-yl)pyrimido[5,4-d]pyrimidin-4-amine], the IC50 in data set [1] is 0.026 µM; on EGFR wild type (EGFR WT), not below 5 µM; on EGFR, not below 10 µM; in data set [2], 0.0152 µM. Also, the efflux ratio at 2 h, 1 μM at BCRP is 1.8; on MDR1 (P-gp), 1.2.

Turning to `Cc1cc(Nc2ncnc3cnc(N4C[C@@H](C)O[C@@H](C)C4)nc23)ccc1Oc1ccc2c(c1)ncn2C` [Example 25, 6-((2S,6R)-2,6-dimethylmorpholino)-N-(3-methyl-4-((1-methyl-1H-benzo[d]imidazol-5-yl)oxy)phenyl)pyrimido[5,4-d]pyrimidin-4-amine], the half-inhibitory concentration (IC50) against ErbB2 WT was 0.329 µM; in data set [1], 0.172 µM; against EGFR, not below 10 µM; in data set [2] it was 0.0534 µM. Also, the efflux ratio at 2 h, 1 μM was determined as 1.4 on BCRP and 1.7 on MDR1 (P-gp).

With `Cc1cc(Nc2ncnc3cnc(N(C)C4CC4)nc23)ccc1Oc1ccc2c(c1)ncn2C` [Example 31, N2-cyclopropyl-N2-methyl-N8-(3-methyl-4-((1-methyl-1H-benzo[d]imidazol-5-yl)oxy)phenyl)pyrimido[5,4-d]pyrimidine-2,8-diamine], the 50% inhibitory concentration (IC50) was 0.158 µM against ErbB2 WT; 0.117 µM in data set [1]; not below 5 µM against EGFR wild type (EGFR WT); not below 10 µM on EGFR; 0.0233 µM in data set [2]. For the same molecule, the efflux ratio at 2 h, 1 μM at BCRP stood at 1.4; on MDR1 (P-gp), 1.3.

As for `CON1CCN(c2ncc3ncnc(Nc4ccc(Oc5ccc6c(c5)ncn6C)c(C)c4)c3n2)CC1` [Example 35, 6-(4-methoxypiperazin-1-yl)-N-(3-methyl-4-((1-methyl-1H-benzo[d]imidazol-5-yl)oxy)phenyl)pyrimido[5,4-d]pyrimidin-4-amine], the IC50 is 0.0942 µM on ErbB2 WT; 0.0335 µM in data set [1]; not below 5 µM at EGFR wild type (EGFR WT); not below 10 µM on EGFR; 0.0078 µM in data set [2]. Further, the efflux ratio at 2 h, 1 μM on BCRP is 1.2; on MDR1 (P-gp), 1.3.

`Cc1cc(Nc2ncnc3cnc(N4CCC4)nc23)ccc1Oc1ccc2c(c1)ncn2C` [Example 36, 6-(azetidin-1-yl)-N-(3-methyl-4-((1-methyl-1H-benzo[d]imidazol-5-yl)oxy)phenyl)pyrimido[5,4-d]pyrimidin-4-amine]: the half-inhibitory concentration (IC50) is 0.0646 µM against ErbB2 WT; 0.0263 µM in data set [1]; not below 5 µM at EGFR wild type (EGFR WT); 9 µM against EGFR; 0.0416 µM in data set [2]. Further, the efflux ratio at 2 h, 1 μM stood at 0.9 on BCRP and 1.2 at MDR1 (P-gp).

`Cc1cc(Nc2ncnc3cnc(-c4ccncc4)nc23)ccc1Oc1ccc2c(c1)ncn2C` [Example 47, N-(3-methyl-4-((1-methyl-1H-benzo[d]imidazol-5-yl)oxy)phenyl)-6-(pyridin-4-yl)pyrimido[5,4-d]pyrimidin-4-amine bis(2,2,2-trifluoroacetate)]: the IC50 is 0.091 µM on ErbB2 WT; 0.0596 µM in data set [1]; not below 5 µM against EGFR wild type (EGFR WT); not below 10 µM against EGFR; 0.0134 µM in data set [2]. Besides, the efflux ratio at 2 h, 1 μM came to 2.3 on BCRP and 1.1 on MDR1 (P-gp).

Take `Cc1cc(Nc2ncnc3cnc(-c4cnco4)nc23)ccc1Oc1ccc2c(c1)ncn2C` [Example 48, N-(3-methyl-4-((1-methyl-1H-benzo[d]imidazol-5-yl)oxy)phenyl)-6-(oxazol-5-yl)pyrimido[5,4-d]pyrimidin-4-amine]: the 50% inhibitory concentration (IC50) against ErbB2 WT is 0.189 µM; in data set [1], 0.0566 µM; against EGFR wild type (EGFR WT), not below 5 µM; against EGFR, not below 10 µM; in data set [2] it was 0.0485 µM. For the same molecule, the figures for the efflux ratio at 2 h, 1 μM on BCRP and on MDR1 (P-gp) were 7.2 and 1.6, respectively.

As for `Cc1cc(Nc2ncnc3cnc(N4C[C@@H]5CC[C@H]4CO5)nc23)ccc1Oc1ccc2c(c1)ncn2C` [Example 53, 6-((1S,4S)-2-oxa-5-azabicyclo[2.2.2]octan-5-yl)-N-(3-methyl-4-((1-methyl-1H-benzo[d]imidazol-5-yl)oxy)phenyl)pyrimido[5,4-d]pyrimidin-4-amine], the IC50 is 0.0752 µM on ErbB2 WT; 0.025 µM in data set [1]; not below 5 µM against EGFR wild type (EGFR WT); not below 10 µM against EGFR; 0.0427 µM in data set [2]. Also, the figures for the efflux ratio at 2 h, 1 μM on BCRP and at MDR1 (P-gp) were 1.6 and 1.7, respectively.

With `Cc1cc(Nc2ncnc3cnc(N4CCO[C@@H]5C[C@@H]54)nc23)ccc1Oc1ccc2c(c1)ncn2C` [Example 199, 6-((1R,6S)-2-oxa-5-azabicyclo[4.1.0]heptan-5-yl)-N-(3-methyl-4-((1-methyl-1H-benzo[d]imidazol-5-yl)oxy)phenyl)pyrimido[5,4-d]pyrimidin-4-amine], the IC50 in data set [1] was 0.0161 µM; against EGFR wild type (EGFR WT) it was not below 5 µM; against EGFR, 5.68 µM; in data set [2] it was 0.0179 µM. In addition, the efflux ratio at 2 h, 1 μM at BCRP worked out at 1.4; on MDR1 (P-gp), 1.9.

For `Cc1cc(Nc2ncnc3cnc(N[C@H]4CN(C)C[C@H]4F)nc23)ccc1Oc1ccc2c(c1)ncn2C` [Example 279], the half-maximal inhibitory concentration (IC50) at ErbB2 WT is 0.0506 µM; in data set [1] it was 0.025 µM; against EGFR wild type (EGFR WT), not below 5 µM; against EGFR, 4.09 µM; in data set [2] it was 0.0012 µM. For the same molecule, the efflux ratio at 2 h, 1 μM on MDR1 (P-gp) was 16.6.

Regarding `Cc1cc(Nc2ncnc3cnc(N4CCN(C)[C@@H](C)C4)nc23)ccc1Oc1ccc2c(c1)ncn2C` [Example 280], the 50% inhibitory concentration (IC50) on ErbB2 WT was 0.0782 µM; in data set [1] it was 0.0382 µM; on EGFR wild type (EGFR WT), not below 5 µM; against EGFR it was not below 10 µM; in data set [2] it was 0.0147 µM. Besides, at MDR1 (P-gp), the efflux ratio at 2 h, 1 μM worked out at 4.

For `Cc1cc(Nc2ncnc3cnc(N4CCN(C)[C@H](C)C4)nc23)ccc1Oc1ccc2c(c1)ncn2C` [Example 281], the 50% inhibitory concentration (IC50) on ErbB2 WT is 0.0842 µM; in data set [1] it was 0.0238 µM; against EGFR wild type (EGFR WT) it was not below 5 µM; against EGFR it was not below 10 µM; in data set [2], 0.0266 µM. In addition, the efflux ratio at 2 h, 1 μM at MDR1 (P-gp) was 2.1.

With `Cc1cc(Nc2ncnc3cnc(O[C@H]4CCNC[C@H]4F)nc23)ccc1Oc1ccc2c(c1)ncn2C` [Example 284], the IC50 was 0.681 µM on ErbB2 WT; 0.0756 µM in data set [1]; not below 5 µM against EGFR wild type (EGFR WT); not below 10 µM against EGFR; 0.0534 µM in data set [2]. For the same molecule, the efflux ratio at 2 h, 1 μM on MDR1 (P-gp) was 95.4.

Take `Cc1cc(Nc2ncnc3cnc(O[C@H]4CCNC[C@@H]4F)nc23)ccc1Oc1ccc2c(c1)ncn2C` [Example 285]: the half-inhibitory concentration (IC50) against ErbB2 WT was 0.787 µM; in data set [1], 0.0839 µM; against EGFR wild type (EGFR WT), not below 5 µM; at EGFR it was not below 10 µM; in data set [2], 0.0532 µM. Also, at MDR1 (P-gp), the efflux ratio at 2 h, 1 μM was 72.1.

The IC50 is the concentration at which inhibition is half-maximal. A word on the efflux ratio: it is the permeability from basolateral to apical divided by that in the opposite direction, in the common usage.
